Test results taken from ChEMBL document CHEMBL4732142, “Discovery of the First Druggable GPR52 Antagonist to Treat Huntington's Disease” (J Med Chem, 2021).
The source made the active and inactive calls. The rule behind the calls is not given here.

Key:
Mus musculus [1] = species: Mus musculus; test: Neuroprotective activity in primary striatal neurons from HdhQ140 mouse assessed as rescue of mHTT-induced neuronal survival loss; type: functional, organism-based; settings: Neuron
Mus musculus [2] = test: Neuroprotective activity in primary striatal neurons from HdhQ140 mouse assessed as rescue of mHTT-induced neuronal survival loss at 5 mg/kg, iv; type: functional, organism-based
Mus musculus [3] = test: Neuroprotective activity in HdhQ140 mouse assessed as decrease in staining intensity of microglia at 0.5 mM, icv by Iba1staining based analysis; type: functional, organism-based
[4] = Drug uptake in mouse brain at 5 mg/kg, iv; type: ADME, organism-based; settings: in vivo, read-out: Drug uptake
[5] = Neuroprotective activity in HdhQ140 mouse model assessed as alleviation of motor deficiency at 5 mg/kg, iv; type: organism-based; settings: in vivo
Mus musculus [6] = test: Neuroprotective activity in HdhQ140 mouse assessed as decrease in staining intensity of microglia at 5 mg/kg, iv by Iba1staining based analysis; type: functional, organism-based
[7] = target: G-protein coupled receptor 52 (Mus musculus, UniProt P0C5J4); test: In-vivo antagonist activity at GPR52 in HdhQ140 mouse model with GPR52 knockdown assessed as decrease in mHTT levels; type: functional
Sequence of G-protein coupled receptor 52 (P0C5J4 whole entry): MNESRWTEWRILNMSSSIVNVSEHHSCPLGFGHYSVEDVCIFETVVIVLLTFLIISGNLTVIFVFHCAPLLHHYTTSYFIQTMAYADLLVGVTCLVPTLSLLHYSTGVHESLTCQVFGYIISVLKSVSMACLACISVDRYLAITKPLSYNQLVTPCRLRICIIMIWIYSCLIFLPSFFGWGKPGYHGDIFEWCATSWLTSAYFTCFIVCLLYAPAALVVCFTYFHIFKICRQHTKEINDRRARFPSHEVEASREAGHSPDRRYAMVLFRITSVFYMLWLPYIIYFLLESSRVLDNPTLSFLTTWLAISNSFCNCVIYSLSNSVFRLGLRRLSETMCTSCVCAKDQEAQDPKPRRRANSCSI

SMILES	Activity (Mus musculus [1])	Activity (Mus musculus [2])	Activity (Mus musculus [3])	concentration [4]	Activity [5]	Activity (Mus musculus [6])	IC50 [7]
O=C(/C=C/CCc1ccccc1)c1cccs1	Active	Active	Active	0.02 µM	Toxic	Active	–
O=C(/C=C/CCc1ccccc1)CCc1ccccc1	–	–	–	–	–	–	6 µM
